Results from patent US7067549B2, “Pyrrolidone carboxamides” (Actelion Pharmaceuticals AG, priority 2001, dated 2006).

Molecular target: T1, mouse NPY-Y5 receptors (mNPY-Y5) (Mus musculus, UniProt O70342)
T1 construct: The full-length cDNA which contains the mouse NPY-Y5 (mNPY-Y5) receptor coding was amplified from mouse brain cDNA; expressed in transfected cells
T1 sequence (O70342 1-466): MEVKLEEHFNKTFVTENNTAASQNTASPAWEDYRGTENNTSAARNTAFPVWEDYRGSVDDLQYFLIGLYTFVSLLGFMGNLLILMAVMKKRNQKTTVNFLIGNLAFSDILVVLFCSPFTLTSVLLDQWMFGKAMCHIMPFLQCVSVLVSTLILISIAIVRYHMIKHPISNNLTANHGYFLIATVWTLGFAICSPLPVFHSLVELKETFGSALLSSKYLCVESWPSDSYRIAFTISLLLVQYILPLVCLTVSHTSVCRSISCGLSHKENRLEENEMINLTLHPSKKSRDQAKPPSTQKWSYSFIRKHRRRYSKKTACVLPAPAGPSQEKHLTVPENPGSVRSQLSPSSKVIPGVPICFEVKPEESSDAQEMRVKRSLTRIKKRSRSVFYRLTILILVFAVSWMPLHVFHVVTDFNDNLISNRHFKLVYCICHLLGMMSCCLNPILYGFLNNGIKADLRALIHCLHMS
Experiment: Radioligand competition binding (125I-PYY) on membranes of HEK293 cells expressing recombinant mouse NPY-Y5 receptor
Conditions: displacement of 100 pM 125I-labeled PYY, 1 h at 22° C., read-out: NPY5 IC50
Text: The full-length cDNA which contains the mouse NPY-Y5 (mNPY-Y5) receptor coding was amplified from mouse brain cDNA using specific primers, which were custom-made on the basis of published sequences, and employing Pfu DNA polymerase (Stratagene). The amplification product was subcloned into a mammalian expression vector pcDNA3 using EcoRI and XhoI restriction sites. Positive clones were sequenced; one clone, which contained the published sequence, was selected for preparing stable cell clones.
Human embryonic kidney 293 (HEK293) cells were transfected with 10 μg of mNPY5 DNA using Lipofectamine reagent (Gibco BRL) in accordance with the manufacturer's instructions. Two days after the transfection, the geneticin selection (1 mg/ml) was initiated and several stable clones were isolated. One of the clones was used for further pharmacological characterization.
Human embryonic kidney cells (HEK293) which express recombinant mouse NPY-Y5 receptors (mNPY-Y5) were disrupted by being frozen/thawed three times in hypotonic Tris buffer (5 mM, pH 7.4, 1 mM MgCl2), after which they were homogenized and centrifuged at 72 000 G for 15 minutes. The precipitate was washed twice with Tris buffer (pH 7.4) containing 25 mM MgCl2, 250 mM sucrose, 0.1 mM phenylmethylsulfonyl fluoride and 0.1 mM 1,10-phenanthroline, then resuspended in the same buffer and stored in aliquots at −80° C. The protein was determined by the Lowry method using bovine serum albumin (BSA) as the standard.
The competition binding analysis was carried out in 250 μl of 25 mM Hepes buffer (pH 7.4, 2.5 mM CaCl2, 1 mM MgCl2, 1% bovine serum albumin and 0.01% sodium azide) which 5 μg of protein, 100 pM ^125I-labeled peptide YY (PYY) and 10 μl of a DMSO solution containing increasing quantities of DMSO solution containing unlabeled test compound. After a one-hour incubation at 22° C., the bound ligand was separated from the unbound ligand by means of filtration through a glass fiber filter. Nonspecific binding was determined in the presence of 1 μM unlabeled PYY. Specific binding is defined as the difference between total binding and nonspecific binding. An IC50 value is defined as the concentration of the antagonist which displaces 50% of the ^125I-labeled […]. This concentration is determined by linear regression analysis following logit/log transformation of the binding values.

`CCN(c1ccccc1)c1ccc(NC(=O)C2CC(=O)N(c3ccccc3C(C)C)C2)cc1` (racemic) [rac. N-[4-(Ethylphenylamino)phenyl]-1-(2-isopropylphenyl)-5-oxopyrrolidine-3-carboxamide] and `CC(C)c1ccccc1N1CC(C(=O)Nc2ccc(N(c3ccccc3)C(C)C)cc2)CC1=O` (racemic) [rac. N-[4-(Isopropylphenylamino)phenyl]-1-(2-isopropylphenyl)-5-oxopyrrolidine-3-carboxamide] are within 1.5-fold of each other in IC50: 23 nM for the first, 34 nM for the second.

First: CCN(CC)c1ccc(NC(=O)C2CC(=O)N(c3cc(C)ccc3C)C2)cc1 (racemic) [rac. N-(4-Diethylaminophenyl)-1-(2,5-dimethylphenyl)-5-oxopyrrolidine-3-carboxamide]
Second: CCN(CCO)c1ccc(NC(=O)C2CC(=O)N(c3cc(C)ccc3C)C2)cc1 (racemic) [rac. N-{4-[Ethyl-(2-hydroxyethyl)amino]phenyl}-1-(2,5-dimethylphenyl)-5-oxopyrrolidine-3-carboxamide]
The IC50 of the first is 1.8-fold lower: 9 nM for the first, 16 nM for the second.

`CCn1c2ccccc2c2cc(NC(=O)C3CC(=O)N(CCN4CCOCC4)C3)ccc21` (racemic) [rac. N-(9-Ethyl-9H-carbazol-3-yl)-1-(2-morpholin-4-ylethyl)-5-oxopyrrolidine-3-carboxamide] and `CCn1c2ccccc2c2cc(NC(=O)C3CC(=O)N(CCc4ccccc4)C3)ccc21` (racemic) [rac. N-(9-Ethyl-9H-carbazol-3-yl)-5-oxo-1-phenethylpyrrolidine-3-carboxamide] are within 1.5-fold of each other in IC50: 10 nM for the first, 12 nM for the second.

`Cc1ccc(C)c(N2CC(C(=O)Nc3ccc(N(c4ccccc4)C(C)C)cc3)CC2=O)c1` (racemic) [rac. N-[4-(Isopropylphenylamino)phenyl]-1-(2,5-dimethylphenyl)-5-oxopyrrolidine-3-carboxamide] and `CCN(c1ccccc1)c1ccc(NC(=O)C2CC(=O)N(c3cc(C)ccc3C)C2)cc1` (racemic) [rac. N-[4-(Ethylphenylamino)phenyl]-1-(2,5-dimethylphenyl)-5-oxopyrrolidine-3-carboxamide] are within 1.5-fold of each other in IC50: 22 nM for the first, 17 nM for the second.

`CCn1c2ccccc2c2cc(NC(=O)C3CC(=O)N(Cc4ccc(OC)cc4OC)C3)ccc21` (racemic) [rac. N-(9-Ethyl-9H-carbazol-3-yl)-1-(2,4-dimethoxybenzyl)-5-oxopyrrolidine-3-carboxamide] and `CCn1c2ccccc2c2cc(NC(=O)C3CC(=O)N(Cc4ccccc4Cl)C3)ccc21` (racemic) [rac. N-(9-Ethyl-9H-carbazol-3-yl)-1-(2-chlorobenzyl)-5-oxopyrrolidine-3-carboxamide] are the same in IC50: 20 nM for the first, 20 nM for the second.

First: CCN(c1ccccc1)c1ccc(NC(=O)C2CC(=O)N(c3cc(OC)ccc3C)C2)cc1 (racemic) [rac. N-[4-(Ethylphenylamino)phenyl]-1-(5-methoxy-2-methylphenyl)-5-oxopyrrolidine-3-carboxamide]
Second: CCOC(=O)CN(c1ccccc1)c1ccc(NC(=O)C2CC(=O)N(c3cc(C)ccc3C)C2)cc1 (racemic) [rac. Ethyl [(4-{[1-(2,5-dimethylphenyl)-5-oxopyrrolidine-3-carbonyl]amino}phenyl)phenylamino]acetate]
The IC50 of the first is 2.3-fold higher: 30 nM for the first, 13 nM for the second.

Going from `CCN(c1ccc(NC(=O)C2CC(=O)N(CCc3ccccn3)C2)cc1)c1nc(C)cc(C)n1` (racemic) [rac. N-{4-[(4,6-Dimethylpyrimidin-2-yl)ethylamino]phenyl}-5-oxo-1-(2-pyridin-2-ylethyl)pyrrolidine-3-carboxamide] to `CCN(c1ccc(NC(=O)C2CC(=O)N(c3cc(OC)ccc3C)C2)cc1)c1nc(C)cc(C)n1` (racemic) [rac. N-{4-[(4,6-Dimethylpyrimidin-2-yl)ethylamino]phenyl}-1-(5-methoxy-2-methylphenyl)-5-oxopyrrolidine-3-carboxamide], the IC50 falls from 24 nM to 15 nM (1.6-fold). The second is the more potent here.

Going from `COc1ccc(C)c(N2CC(C(=O)Nc3ccc(N(C)c4nc(C)cc(C)n4)cc3)CC2=O)c1` (racemic) [rac. N-{4-[(4,6-Dimethylpyrimidin-2-yl)methylamino]phenyl}-1-(5-methoxy-2-methylphenyl)-5-oxopyrrolidine-3-carboxamide] to `Cc1ccc(C)c(N2CC(C(=O)Nc3ccc(N(C)c4nc(C)cc(C)n4)cc3)CC2=O)c1` (racemic) [rac. N-{4-[(4,6-Dimethylpyrimidin-2-yl)methylamino]phenyl}-1-(2,5-dimethylphenyl)-5-oxopyrrolidine-3-carboxamide], the IC50 falls from 41 nM to 20 nM (2-fold).

`Cc1ccc(N2CC(C(=O)Nc3ccc(N(C)c4nc(C)cc(C)n4)cc3)CC2=O)cc1` (racemic) [rac. N-{4-[(4,6-Dimethylpyrimidin-2-yl)methylamino]phenyl}-5-oxo-1-p-tolylpyrrolidine-3-carboxamide] and `Cc1ccc(N2CC(C(=O)Nc3ccc(Nc4nc(C)cc(C)n4)cc3)CC2=O)cc1` (racemic) [rac. N-[4-(4,6-Dimethylpyrimidin-2-ylamino)phenyl]-5-oxo-1-p-tolylpyrrolidine-3-carboxamide] are within 1.5-fold of each other in IC50: 22 nM for the first, 32 nM for the second.

`Cc1ccc(C)c(N2CC(C(=O)Nc3ccc(N(CC4CC4)c4ccccc4)cc3)CC2=O)c1` (racemic) [rac. N-[4-(Cyclopropylmethylphenylamino)phenyl]-1-(2,5-dimethylphenyl)-5-oxopyrrolidine-3-carboxamide] and `Cc1ccc(C)c(N2CC(C(=O)Nc3ccc(-c4ccccc4)cc3)CC2=O)c1` (racemic) [rac. N-(Biphenyl-4-yl)-1-(2,5-dimethylphenyl)-5-oxopyrrolidine-3-carboxamide] are within 1.5-fold of each other in IC50: 45 nM for the first, 34 nM for the second.

First: Cc1cc(C)nc(N(C)c2ccc(NC(=O)C3CC(=O)N(c4ccccc4C(C)C)C3)cc2)n1 (racemic) [rac. N-{4-[(4,6-Dimethylpyrimidin-2-yl)methylamino]phenyl}-1-(2-isopropylphenyl)-5-oxopyrrolidine-3-carboxamide]
Second: Cc1ccc(C)c(N2CC(C(=O)Nc3ccc(Nc4nc(C)cc(C)n4)cc3)CC2=O)c1 (racemic) [rac. N-[4-(4,6-Dimethylpyrimidin-2-ylamino)phenyl]-1-(2,5-dimethylphenyl)-5-oxopyrrolidine-3-carboxamide]
The IC50 of the first is 1.6-fold higher: 31 nM for the first, 20 nM for the second. The second is the more potent here.

First: CCn1c2ccccc2c2cc(NC(=O)C3CC(=O)N(CCc4ccccn4)C3)ccc21 (racemic) [rac. N-(9-Ethyl-9H-carbazol-3-yl)-5-oxo-1-(2-pyridin-2-ylethyl)pyrrolidine-3-carboxamide]
Second: CCn1c2ccccc2c2cc(NC(=O)C3CC(=O)N(CC(O)c4ccccc4)C3)ccc21 (racemic) [rac. N-(9-Ethyl-9H-carbazol-3-yl)-1-(2-hydroxy-2-phenylethyl)-5-oxopyrrolidine-3-carboxamide]
The IC50 of the first is 2.7-fold lower: 3 nM for the first, 8 nM for the second.
